Non-standard residues stand in square brackets, D forms with d. No end group written: not given here.
Key:
[1] = test system: TGF β-1; assay: Inhibition of TGF β-1 activity by CITAs: reversal of TGF β-1 inhibition of DNA synthesis in MV-1-Lu cells; type: cell-based; conditions: for DNA synthesis restored, relative to the level seen with TGF β-1: MV-1-Lu cells exposed to 5 nM TGF β-1, all concentrations of CITAs; for reversal of the inhibition of DNA synthesis caused by TGF β-1 / 3H-Thymidine Incorporation 10^3 d.p.m. ± S.D.: MV-1-Lu cells; for reversal of the inhibition of DNA synthesis caused by TGF β-1: TGF β-1 5 nM and 10 nM; for 3H-Thymidine Incorporation 10^3 d.p.m. ± S.D.: 24 h; for (+/−) % change over control when CITA is present: vs control (no additions)
Text: (§1) Inhibition of TGF β-1 Activity by CITAs: We have used a standardized in vitro assay for TGF β-1 as a test for the biological activity of CITAs. Our test is based on inhibiting the effect of TGF β-1 on a test cell proliferation system. In this assay, mink lung epithelium MV-1-Lu cells are exposed to TGF β-1. […] The decrease in DNA synthesis can be monitored by measuring the incorporation of labeled precursors in DNA. The incorporation of ^3H-thymidine in DNA in MV-1-Lu cells are used as a measure of cell proliferation. […] These concentrations of TGF β-1 were based on the amounts of TGF β-1 found in normal serum and in serum from patients with peritonitis, an inflammatory disease. The normal amount of TGF β-1 in human serum is approximately 2 nM (39 pG/ml). In patients with peritonitis, the amount increases to nearly 10 nM (169-216 pG/ml). The incorporation of ^3H-thymidine in the absence of TGF β-1 served as the control. To test the anti-TGF β-1 activity of CITAs, the cells were exposed to 1 nM, 10 nM, and 100 nM CITA-I, CITA-II, and CITA-III in the absence and in the presence of 5.0 nM and 10.0 nM TGF β-1.
(§2) Details of Experimental Procedures: 10^4 MV-1-Lu were plated in each well of a 12 well plate in 2.0 ml minimum essential medium containing non-essential amino acids (MEM) and 10% fetal bovine serum. After 24 hours, the medium was placed with serum free MEM and the cells were further cultured for two hours before the medium was placed with serum free MEM containing the test additives. After exposure to the test medium for 24 hours, the cells were pulse labeled for two hours with 0.5 μCi (methyl-^3H)-thymidine, (specific activity 60 Ci/mmol). After pulse labeling, the radioactive medium was removed, and the cells were washed 1× with 10% trichloracetic acid (TCA), 2× with 5% TCA, then 2× with phosphate buffered saline containing 50 μg/ml non-radioactive thymidine. The wash solutions were monitored to establish that no further unbound radioactive thymidine remained. The washed cell layers were dissolved in 1 ml 0.1 N NaOH containing 1% sodium dodecyl sulfate. The radioactivity in the solution was measured in a scintillation counter and expressed as disintegrations per minute (d.p.m.). Each test was carried out in quadruplicate, and the data presented as mean±standard deviation.

[2] = test system: mink lung epithelium MV-1-Lu cells; assay: DNA synthesis (3H-thymidine incorporation) in MV-1-Lu cells, additions alone; type: cell-based; conditions: for 3H-Thymidine Incorporation 10^3 d.p.m. ± S.D.: 24 h; for (+/−) % change over control when CITA is present / (+/−) % change over control with TGF β-1: vs control (no additions); for decrease of DNA synthesis against the control: CITA alone, all concentrations examined (1, 10, 100 nM)
Text: as §1, §2

[3] = TGF β-1 5 nM + CITA 1 nM, relative to TGF β-1 5 nM alone
[4] = TGF β-1 5 nM + CITA 10 nM, relative to TGF β-1 5 nM alone
[5] = TGF β-1 5 nM + CITA 100 nM, relative to TGF β-1 5 nM alone
[6] = TGF β-1 10 nM + CITA 1 nM, relative to TGF β-1 10 nM alone
[7] = TGF β-1 10 nM + CITA 10 nM, relative to TGF β-1 10 nM alone
[8] = TGF β-1 10 nM + CITA 100 nM, relative to TGF β-1 10 nM alone
[9] = CITA 1 nM alone, no TGF β-1, MV-1-Lu cells
[10] = CITA 10 nM alone, no TGF β-1, MV-1-Lu cells
[11] = CITA 100 nM alone, no TGF β-1, MV-1-Lu cells

Substance | DNA synthesis restored, relative to the level seen with TGF β-1 [1] | reversal of the inhibition of DNA synthesis caused by TGF β-1 [1] | % Increase over TGF β-1. TGF β-1 + CITA/TGF β-1 × 100 [1, 3] | 3H-Thymidine Incorporation 10^3 d.p.m. ± S.D. ([1]; TGF β-1 5 nM + CITA 1 nM) | (+/−) % change over control when CITA is present ([1]; TGF β-1 5 nM + CITA 1 nM) | % Increase over TGF β-1. TGF β-1 + CITA/TGF β-1 × 100 [1, 4] | 3H-Thymidine Incorporation 10^3 d.p.m. ± S.D. ([1]; TGF β-1 5 nM + CITA 10 nM) | (+/−) % change over control when CITA is present ([1]; TGF β-1 5 nM + CITA 10 nM) | % Increase over TGF β-1. TGF β-1 + CITA/TGF β-1 × 100 [1, 5] | 3H-Thymidine Incorporation 10^3 d.p.m. ± S.D. ([1]; TGF β-1 5 nM + CITA 100 nM) | (+/−) % change over control when CITA is present ([1]; TGF β-1 5 nM + CITA 100 nM) | % Increase over TGF β-1. TGF β-1 + CITA/TGF β-1 × 100 [1, 6] | 3H-Thymidine Incorporation 10^3 d.p.m. ± S.D. ([1]; TGF β-1 10 nM + CITA 1 nM) | (+/−) % change over control when CITA is present ([1]; TGF β-1 10 nM + CITA 1 nM) | % Increase over TGF β-1. TGF β-1 + CITA/TGF β-1 × 100 [1, 7] | 3H-Thymidine Incorporation 10^3 d.p.m. ± S.D. ([1]; TGF β-1 10 nM + CITA 10 nM) | (+/−) % change over control when CITA is present ([1]; TGF β-1 10 nM + CITA 10 nM) | % Increase over TGF β-1. TGF β-1 + CITA/TGF β-1 × 100 [1, 8] | 3H-Thymidine Incorporation 10^3 d.p.m. ± S.D. ([1]; TGF β-1 10 nM + CITA 100 nM) | (+/−) % change over control when CITA is present ([1]; TGF β-1 10 nM + CITA 100 nM) | also measured
Leu-Ile-Ala-Pro-D-Glu-Ala (LIAP[dE]A) [CITA-I] | 2 × | markedly reversed the inhibition of DNA synthesis | 250% | 41.05 ± 2.04 10^3 d.p.m. | −29% | 194% | 31.88 ± 2.32 10^3 d.p.m. | −45% | 181% | 29.70 ± 2.79 10^3 d.p.m. | −49% | 1113% | 21.26 ± 1.30 10^3 d.p.m. | −63% | 1373% | 26.23 ± 2.73 10^3 d.p.m. | −55% | 906% | 17.30 ± 2.19 10^3 d.p.m. | −70% | increase in DNA synthesis in the inhibited cells ([1]; cells severely inhibited by 10 nM TGF β-1, all concentrations of CITA-I): over 10 fold; 3H-Thymidine Incorporation 10^3 d.p.m. ± S.D. [2, 9]: 46.46 ± 2.48 10^3 d.p.m.; (+/−) % change over control when CITA is present ([2]; CITA 1 nM alone, no TGF β-1): −19%; 3H-Thymidine Incorporation 10^3 d.p.m. ± S.D. [2, 10]: 44.93 ± 3.34 10^3 d.p.m.; (+/−) % change over control when CITA is present ([2]; CITA 10 nM alone, no TGF β-1): −21%; 3H-Thymidine Incorporation 10^3 d.p.m. ± S.D. [2, 11]: 45.10 ± 1.27 10^3 d.p.m.; (+/−) % change over control when CITA is present ([2]; CITA 100 nM alone, no TGF β-1): −22%; decrease of DNA synthesis against the control [2]: approximately 20%
Phe-Ile-Ala-Pro-D-Glu-Ala (FIAP[dE]A) [CITA-II] | 2 × | markedly reversed the inhibition of DNA synthesis | 184% | 31.04 ± 1.07 10^3 d.p.m. | −29% | 169% | 27.75 ± 1.50 10^3 d.p.m. | −45% | 207% | 34.00 ± 0.86 10^3 d.p.m. | −49% | 970% | 18.51 ± 1.23 10^3 d.p.m. | −63% | 1084% | 20.70 ± 2.63 10^3 d.p.m. | −55% | 981% | 18.73 ± 1.67 10^3 d.p.m. | −70% | 3H-Thymidine Incorporation 10^3 d.p.m. ± S.D. [2, 9]: 45.10 ± 1.27 10^3 d.p.m.; (+/−) % change over control when CITA is present ([2]; CITA 1 nM alone, no TGF β-1): −22%; 3H-Thymidine Incorporation 10^3 d.p.m. ± S.D. [2, 10]: 42.03 ± 1.11 10^3 d.p.m.; (+/−) % change over control when CITA is present ([2]; CITA 10 nM alone, no TGF β-1): −27%; 3H-Thymidine Incorporation 10^3 d.p.m. ± S.D. [2, 11]: 43.08 ± 1.23 10^3 d.p.m.; (+/−) % change over control when CITA is present ([2]; CITA 100 nM alone, no TGF β-1): −25%; decrease of DNA synthesis against the control [2]: approximately 20%
Leu-Phe-Ala-Pro-D-Glu-Ala (LFAP[dE]A) [CITA-III] | 2 × | markedly reversed the inhibition of DNA synthesis | 207% | 34.00 ± 0.86 10^3 d.p.m. | −41% | 207% | 34.03 ± 1.11 10^3 d.p.m. | −41% | 184% | 30.23 ± 1.69 10^3 d.p.m. | −48% | 1275% | 24.36 ± 1.14 10^3 d.p.m. | −58% | 997% | 19.04 ± 1.47 10^3 d.p.m. | −67% | 907% | 17.32 ± 0.27 10^3 d.p.m. | −70% | 3H-Thymidine Incorporation 10^3 d.p.m. ± S.D. [2, 9]: 44.67 ± 2.26 10^3 d.p.m.; (+/−) % change over control when CITA is present ([2]; CITA 1 nM alone, no TGF β-1): −23%; 3H-Thymidine Incorporation 10^3 d.p.m. ± S.D. [2, 10]: 47.19 ± 3.00 10^3 d.p.m.; (+/−) % change over control when CITA is present ([2]; CITA 10 nM alone, no TGF β-1): −18%; 3H-Thymidine Incorporation 10^3 d.p.m. ± S.D. [2, 11]: 44.36 ± 1.76 10^3 d.p.m.; (+/−) % change over control when CITA is present ([2]; CITA 100 nM alone, no TGF β-1): −23%; decrease of DNA synthesis against the control [2]: approximately 20%
TGF β-1: transforming growth factor β-1, growth factor protein used to inhibit DNA synthesis of MV-1-Lu cells | – | – | – | – | – | – | – | – | – | – | – | – | – | – | – | – | – | – | – | – | 3H-Thymidine Incorporation 10^3 d.p.m. ± S.D. ([2]; TGF β-1 5 nM alone, MV-1-Lu cells): 16.43 ± 2.95 10^3 d.p.m.; (+/−) % change over control with TGF β-1 ([2]; TGF β-1 5 nM alone): −72%; decrease of DNA synthesis ([2]; TGF β-1 5.0 nM, MV-1-Lu cells): approximately 70%; 3H-Thymidine Incorporation 10^3 d.p.m. ± S.D. ([2]; TGF β-1 10 nM alone, MV-1-Lu cells): 1.91 ± 0.08 10^3 d.p.m.; (+/−) % change over control with TGF β-1 ([2]; TGF β-1 10 nM alone): −97%; inhibition of DNA synthesis ([2]; TGF β-1 10 nM, MV-1-Lu cells): ~97%
